One assay addresses T1, full length AKT1 (Homo sapiens, UniProt P31749).
T1 construct: Full-length human AKT1 gene was amplified by PCR; His tag (from vector pFastbacHTb; N-terminal position is own knowledge of the vector) (N); made in house; host or cells: baculovirus; Sf9 / T. ni insect cells
Briefly: AKT enzyme assay (substrate phosphorylation, SPA), full length AKT1. The class given is biochemical. The settings on record: in at least one experimental run; pIC50 = -log(IC50), IC50 in molar units.

The target of the next assay is T2, full length AKT3 (Homo sapiens, UniProt Q9Y243).
T2 construct: Full length AKT2 and full length AKT3 were cloned, expressed and purified in a similar fashion; His tag (inferred: made in a similar fashion to AKT1 in pFastbacHTb with nickel purification) (N); made in house; host or cells: baculovirus; insect cells (by analogy with AKT1)
As to the kind of experiment: AKT enzyme assay (substrate phosphorylation, SPA), full length AKT3. The conditions noted are these: in at least one experimental run; pIC50 = -log(IC50), IC50 in molar units. Format: biochemical. The procedure: Compounds of the present invention are tested for AKT 1, 2, and 3 protein serine kinase inhibitory activity in substrate phosphorylation assays. This assay examines the ability of small molecule organic compounds to inhibit the serine phosphorylation of a peptide substrate. […] AKT 1, 2 and 3 are also commercially available from Upstate USA, Inc. The method measures the ability of the isolated enzyme to catalyze the transfer of the gamma-phosphate from ATP onto the serine residue of a biotinylated synthetic peptide SEQ. […] Substrate phosphorylation is detected by the following procedure:
ATP/well, 1 mM CHAPS, 2 mM DTT, and 1 ul of test compound in 100% DMSO. The reaction is stopped by the addition of 50 ul SPA bead mix (Dulbecco's PBS without Mg^2+ and Ca^2+, 0.1% Triton X-100, 5 mM EDTA, 50 uM ATP, 2.5 mg/ml Streptavidin-coated SPA beads.) The plate is sealed, the beads are allowed to settle overnight, and then the plate is counted in a Packard Topcount Microplate Scintillation Counter (Packard Instrument Co., Meriden, Conn.).
The data for dose responses are plotted as % Control calculated with the data reduction formula 100*(U1−C2)/(C1−C2) versus concentration of compound where U is the unknown value, C1 is the average control value obtained for DMSO, and C2 is the average control value obtained for 0.1M EDTA. […]

T2 sequence (Q9Y243 whole entry): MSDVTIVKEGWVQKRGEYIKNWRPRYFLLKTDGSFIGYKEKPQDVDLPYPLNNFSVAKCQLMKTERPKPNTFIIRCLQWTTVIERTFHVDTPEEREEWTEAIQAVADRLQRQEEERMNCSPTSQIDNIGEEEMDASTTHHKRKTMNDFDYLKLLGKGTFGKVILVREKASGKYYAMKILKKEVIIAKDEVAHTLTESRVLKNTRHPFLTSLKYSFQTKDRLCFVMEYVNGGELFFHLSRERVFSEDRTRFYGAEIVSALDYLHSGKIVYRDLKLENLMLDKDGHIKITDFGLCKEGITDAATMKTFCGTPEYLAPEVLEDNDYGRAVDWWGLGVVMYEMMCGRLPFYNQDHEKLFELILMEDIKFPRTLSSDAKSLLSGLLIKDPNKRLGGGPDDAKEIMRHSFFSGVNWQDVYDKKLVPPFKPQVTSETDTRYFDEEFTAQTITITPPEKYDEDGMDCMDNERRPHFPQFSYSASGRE
T1 sequence (P31749 whole entry): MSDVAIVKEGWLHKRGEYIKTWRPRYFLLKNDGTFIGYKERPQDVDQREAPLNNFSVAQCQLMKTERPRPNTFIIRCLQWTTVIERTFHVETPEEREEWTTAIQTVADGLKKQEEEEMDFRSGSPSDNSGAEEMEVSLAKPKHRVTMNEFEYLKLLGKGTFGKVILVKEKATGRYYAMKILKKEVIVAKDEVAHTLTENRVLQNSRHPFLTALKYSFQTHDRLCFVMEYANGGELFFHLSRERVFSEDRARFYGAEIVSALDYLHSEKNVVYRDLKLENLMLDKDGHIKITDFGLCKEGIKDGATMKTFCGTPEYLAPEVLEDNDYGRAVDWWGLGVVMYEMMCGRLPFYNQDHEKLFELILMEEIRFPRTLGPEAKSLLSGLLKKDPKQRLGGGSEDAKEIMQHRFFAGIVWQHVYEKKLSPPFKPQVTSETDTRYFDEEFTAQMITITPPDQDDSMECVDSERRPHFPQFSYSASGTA

On to `Cn1ncc(Cl)c1-c1cc(C(=O)N[C@H](CN)Cc2cccc(F)c2)oc1Cl` [Example 137, N-{(1S)-2-amino-1-[(3-fluorophenyl)methyl]ethyl}-5-chloro-4-(4-chloro-1-methyl-1H-pyrazol-5-yl)-2-furancarboxamide], for which the “pIC50 value against full length AKT1” value against full length AKT1 is given as 9.0. Besides, on full length AKT3, the “pIC50 value against full length AKT3” value was found to be 8.4.
In the case of `Cc1sc(C(=O)N[C@H](CN)Cc2cccc(F)c2)cc1-c1c(Cl)cnn1C` [Example 161, N-{(1S)-2-amino-1-[(3-fluorophenyl)methyl]ethyl}-4-(4-chloro-1-methyl-1H-pyrazol-5-yl)-5-methyl-2-thiophenecarboxamide], the “pIC50 value against full length AKT1” value against full length AKT1 is 8.8. On full length AKT3, the “pIC50 value against full length AKT3” value was 7.6.
